This assay has as its target T1, PDZ2 domain of human tyrosine phosphatase 1E (hPTP1E) (Homo sapiens, UniProt Q12923).
T1 construct: the PDZ2 domain of human tyrosine phosphatase 1E (hPTP1E); polyhistidine (N); made in house; host or cells: Escherichia coli BL21 (DE3)
T1 sequence (Q12923 1368-1452 limits assumed): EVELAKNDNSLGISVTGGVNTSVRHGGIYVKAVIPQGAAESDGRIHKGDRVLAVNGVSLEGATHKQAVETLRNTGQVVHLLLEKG
The assay can be described thus: [15N,1H]-HSQC chemical shift perturbation / titration of peptides with PDZ2 domain. The settings on record: [15N,1H]-HSQC-based titration series, calculated by Titan. In kind it is binding. The text has this:
To establish a proof of concept, we decided to design and study peptides that bind to the PDZ2 domain of human tyrosine phosphatase comprising a tryptophane at the N-terminus of the peptides for detection by photo-CIDNP since tryptophane is known to be well polarized in the presence of fluorescein.[10],[25] The positive and negative control peptides (i.e., WVSAV and WEKLQT, respectively) were then checked in their binding capacity using [^15N,^1H]-HSQC experiments (Figure 2A,C).
Figure 2 Peptide binding studies of peptides to the PDZ2 domain of the human tyrosine phosphatase by standard chemical shift perturbation 2D NMR experiments and photo-CIDNP 1D ^1H NMR. (A) and (C) 2D [^15N,^1H]-HSQC spectra of the ^15N-labeled PDZ2 domain in the absence (black) and presence (green) of the peptide WVSAV (A) or WEKLQT (C), the experiments were recorded each within ca. 30 min. Photo-CIDNP ^1H 1D NMR spectra of the tryptophane aromatic resonances of (B) WVSAV and (D) WEKLQT in the absence (black lines) and presence (green lines) of the PDZ2 domain of the human tyrosine phosphatase, the experiments were recorded each within ca. 5 s. All of the 1D NMR spectra are single-scan experiments and were recorded with 100 μM peptide, ±100 μM PDZ2 domain at 298 K. The hyperpolarization was triggered by 4 s of light irradiation (450 nm, 1 W) in the presence of 25 μM fluorescein in photo-CIDNP buffer. […]

Where a SMILES comes first, the peptide text is derived from it.

Broadly, the Kd is the concentration at which binding is half-saturated. Consider `CC(C)[C@H](NC(=O)[C@H](C)NC(=O)[C@H](CO)NC(=O)[C@@H](NC(=O)[C@@H](N)Cc1c[nH]c2ccccc12)C(C)C)C(=O)O` [WVSAV] (H-WVSAV-OH), for which the Kd is 111 ± 3.3 µM.

These data come from paper PMC10251509, “Ultrafast Fragment Screening Using Photo-Hyperpolarized (CIDNP) NMR” (Journal of the American Chemical Society, 2023).
